According to US4493796A, “Didemnins A, B, C, and derivatives thereof, as antiviral agents” (Board of Trustees, Univ. of Ill., priority 1984, dated 1985):

Columns and labels:
[1] = tested on: Coxsackie A21 virus (RNA); assay: Agar diffusion plaque inhibition assay, COE; format: cell-based; settings: 50 μg of test compound
Equine rhinovirus (RNA) = assay: Agar diffusion plaque inhibition assay, E.R.; format: cell-based; settings: 50 μg of test compound
Vaccinia virus (DNA) = format: cell-based; settings: VACC.; 50 μg of test compound
[2] = tested on: Herpes simplex virus type I (DNA); assay: Agar diffusion plaque inhibition assay, HSV-1; format: cell-based; settings: 50 μg of test compound
[3] = tested on: Herpes simplex virus type II (DNA); assay: Agar diffusion plaque inhibition assay, HSV-2; format: cell-based; settings: 50 μg of test compound
[4] = tested on: Parainfluenza 3 virus (RNA); format: cell-based; settings: HA-1; 50 μg of test compound
PR-8 Influenza (RNA) = format: cell-based, Influenza virus; settings: PR8; 50 μg of test compound
cells = assay: Agar diffusion plaque inhibition assay, zone of cytotoxicity (cell death); format: cell-based; settings: 50 μg of test compound
Protocol: These tests were performed by the methods described in the following published reference: (H. E. Renis, C. A. Hollowell, and G. E. Underwood, J. Med. Chem., Vol 10, pp 777-782 (1967)). Both DNA and RNA-containing viruses were used. The results are presented below as the zone of cytotoxicity (cell death)/zone of viral plaque inhibition for 50 μg of test compound.

With `COc1ccc(C[C@H]2C(=O)O[C@H](C)[C@H](NC(=O)[C@@H](CC(C)C)N(C)C(=O)C3CCCN3C(=O)C(C)OC(C)=O)C(=O)NC(CC(C)C)C(OC(C)=O)CC(=O)OC(C(C)C)C(=O)C(C)C(=O)N[C@@H](CC(C)C)C(=O)N3CCC[C@H]3C(=O)N2C)cc1` (some centres unmarked) [Diacetyl] the “zone of viral plaque inhibition” value [1] was 3, the “zone of viral plaque inhibition” value (Equine rhinovirus (RNA)) was 4 and the “zone of viral plaque inhibition” value (Vaccinia virus (DNA)) was 4. For the same compound, the “zone of viral plaque inhibition” value [2] was 4, the “zone of viral plaque inhibition” value [3] was 4 and the “zone of viral plaque inhibition” value [4] was 0. For the same compound, the “zone of viral plaque inhibition” value (PR-8 Influenza (RNA)) was 0, the “zone of cytotoxicity (cell death)” value (cells; COE) was 3 and the “zone of cytotoxicity (cell death)” value (cells; E.R.) was 2. The “zone of cytotoxicity (cell death)” value (cells; HA-1) was 1, the “zone of cytotoxicity (cell death)” value (cells; HSV-1) was 3 and the “zone of cytotoxicity (cell death)” value (cells; HSV-2) was 3. The “zone of cytotoxicity (cell death)” value (cells; PR8) was 3 and the “zone of cytotoxicity (cell death)” value (cells; VACC.) was 3.
